From ChEMBL document CHEMBL1127392, “5-Phenyl-3-ureidobenzazepin-2-ones as cholecystokinin-B receptor antagonists” (J Med Chem, 1994)

These compounds were tested against T1, Cholecystokinin receptor type A (Cavia porcellus, UniProt Q63931) (assay: In vitro binding affinity for the cholecystokinin type A receptor in guinea pig pancreas assayed using [125I]BH-CCK-8 as radioligand).
T1 sequence (Q63931 whole entry): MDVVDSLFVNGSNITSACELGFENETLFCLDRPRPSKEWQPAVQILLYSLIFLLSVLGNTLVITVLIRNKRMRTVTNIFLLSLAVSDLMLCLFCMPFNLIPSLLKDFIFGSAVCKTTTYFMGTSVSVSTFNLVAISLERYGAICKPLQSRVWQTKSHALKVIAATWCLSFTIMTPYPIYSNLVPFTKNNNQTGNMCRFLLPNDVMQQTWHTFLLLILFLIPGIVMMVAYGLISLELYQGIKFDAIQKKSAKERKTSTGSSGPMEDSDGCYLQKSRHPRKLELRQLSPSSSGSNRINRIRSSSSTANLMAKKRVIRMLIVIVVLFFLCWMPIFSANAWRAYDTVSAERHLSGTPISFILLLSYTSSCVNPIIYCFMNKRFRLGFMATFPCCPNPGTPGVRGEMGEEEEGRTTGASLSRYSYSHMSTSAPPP
In the case of `Cc1ccc2c(c1)N(CC(=O)NC(C)(C)C)C(=O)[C@H](NC(=O)Nc1cccc(Cl)c1)C[C@@H]2C(C)C`, the IC50 is reported as 72 nM. `Cc1ccc([C@H]2C[C@@H](NC(=O)Nc3cccc(Cl)c3)C(=O)N(CC(=O)NC(C)(C)C)c3cc(C)ccc32)cc1` was tested, and the IC50 was 417 nM. For `CC(C)(C)NC(=O)CN1C(=O)[C@H](NC(=O)Nc2cccc(Cl)c2)C[C@H](C2CCCCC2)c2ccccc21`, the IC50 was 171 nM. For `Cc1cccc(NC(=O)N[C@@H]2N=C(c3ccccc3)c3ccccc3N(C)C2=O)c1` [L-365260], the IC50 was 86 nM. With `Cc1cccc(NC(=O)N[C@@H]2C[C@H](c3ccccc3)c3ccccc3N(CC(=O)NC(C)(C)C)C2=O)c1` the IC50 was 288 nM. `Cc1cccc2c1N(CC(=O)NC(C)(C)C)C(=O)[C@H](NC(=O)Nc1cccc(Cl)c1)C[C@@H]2c1ccccc1` gave an IC50 of 77 nM. Compound `CC1(NC(=O)CN2C(=O)[C@H](NC(=O)Nc3cccc(Cl)c3)C[C@H](c3ccccc3)c3ccccc32)CCCCC1` has an IC50 of 467 nM. `CC(C)(NC(=O)CN1C(=O)[C@H](NC(=O)Nc2cccc(Cl)c2)C[C@H](c2ccccc2)c2ccccc21)c1ccccc1` gave an IC50 of 460 nM. `Cc1ccc(NC(=O)N[C@@H]2C[C@H](c3ccccc3)c3ccccc3N(CC(=O)NC(C)(C)C)C2=O)cc1` gave an IC50 of 1140 nM. Work on `CC(C)(C)NC(=O)CN1C(=O)[C@H](NC(=O)Nc2cccc(Cl)c2)C[C@H](c2cccc(Cl)c2)c2ccccc21` yielded an IC50 of 69 nM. For `Cc1ccc2c(c1)N(CC(=O)NC(C)(C)C)C(=O)[C@H](NC(=O)Nc1cccc(Cl)c1)C[C@@H]2c1ccccc1` (stereo in doubt; 4), the IC50 was 176 nM. `CN(C(=O)CN1C(=O)[C@H](NC(=O)Nc2cccc(Cl)c2)C[C@H](c2ccccc2)c2ccccc21)C(C)(C)C` gave an IC50 of 4.2 nM. With `Cc1ccc2c(c1)N(CC(=O)NC(C)(C)C)C(=O)[C@H](NC(=O)Nc1cccc(Cl)c1)C[C@@H]2c1ccccc1` (stereo in doubt; 43a) the IC50 was 130 nM. Compound `Cc1ccc2c(c1)N(CC(=O)NC(C)(C)C)C(=O)[C@H](NC(=O)Nc1cccc(Cl)c1)C[C@@H]2C1CCCCC1` has an IC50 of 560 nM. In the case of `Cc1cccc(NC(=O)N[C@@H]2C[C@H](c3ccccc3)c3ccccc3N(CC(=O)OC(C)(C)C)C2=O)c1`, the IC50 is reported as 50 nM. `Cc1ccc2c(c1)N(CC(=O)NC(C)(C)C)C(=O)[C@@H](NC(=O)Nc1cccc(Cl)c1)C[C@H]2c1ccccc1` gave an IC50 of 363 nM. In the case of `Cc1ccc2c(c1)N(CC(=O)NC(C)(C)C)C(=O)[C@H](NC(=O)Nc1cccc(Cl)c1)C[C@@H]2Cc1ccccc1`, the IC50 is reported as over 10000 nM. Work on `Cc1ccc2c(c1)[C@@H](c1ccccc1)C[C@@H](NC(=O)Nc1cccc(Cl)c1)C(=O)N2CC(=O)NC(C)(C)C` yielded an IC50 of 317 nM. `CC(C)(C)NC(=O)CN1C(=O)[C@@H](NC(=O)Nc2cccc(Cl)c2)C[C@H](C2CCCCC2)c2ccccc21` showed an IC50 of over 10000 nM. Work on `CC(C)(C)NC(=O)CN1C(=O)[C@H](NC(=O)Nc2cccc(Cl)c2)C[C@H](c2ccccc2)c2ccc(Cl)cc21` yielded an IC50 of 320 nM. `CCc1ccc2c(c1)N(CC(=O)NC(C)(C)C)C(=O)[C@H](NC(=O)Nc1cccc(Cl)c1)C[C@@H]2c1ccccc1` gave an IC50 of 71 nM. `Cc1ccccc1NC(=O)N[C@@H]1C[C@H](c2ccccc2)c2ccccc2N(CC(=O)NC(C)(C)C)C1=O` showed an IC50 of 1470 nM. Compound `COc1cccc(NC(=O)N[C@@H]2C[C@H](c3ccccc3)c3ccccc3N(CC(=O)NC(C)(C)C)C2=O)c1` has an IC50 of 166 nM. `CC(C)(C)NC(=O)CN1C(=O)[C@H](NC(=O)Nc2ccc(Cl)cc2)C[C@H](c2ccccc2)c2ccccc21` was tested, and the IC50 was 399 nM. `CCC(C)(C)NC(=O)CN1C(=O)[C@H](NC(=O)Nc2cccc(Cl)c2)C[C@H](c2ccccc2)c2ccccc21` gave an IC50 of 144 nM. `CC(C)(C)NC(=O)CN1C(=O)[C@H](NC(=O)Nc2cccc(Cl)c2)C[C@H](c2ccccc2)c2cc(Cl)ccc21` showed an IC50 of 287 nM. Work on `Cc1ccc2c(c1)N(CC(=O)OC(C)(C)C)C(=O)[C@H](NC(=O)Nc1cccc(Cl)c1)C[C@@H]2c1ccccc1` yielded an IC50 of 34 nM. For `CC(C)(C)NC(=O)CN1C(=O)[C@H](NC(=O)Nc2cccc(Cl)c2)C[C@H](c2ccccc2)c2ccccc21`, the IC50 was 144 nM.
